Results on seven molecules are retold here after patent US8404651B2, “Compositions and methods for treating viral infections” (priority 2008, dated 2013).

For orientation: CC50 means the concentration giving 50% cytotoxicity. Usually EC50 stands for the midpoint of the concentration-response curve. One may read the EC90 as the concentration needed for an effect of 90%.

The test system of data set [1] is HCV replicon cell line, AVA5. Put plainly: Cytotoxicity by neutral red dye uptake in replicon cultures in parallel plates. Conditions: read-out: Control 2 (μM) CC50; genotype 1B. The method, then: (§1) Primary anti-HCV assay-Antiviral activity against HCV was assessed in a 3-day assay (Okuse, et al., 2005; Antiviral. Res. 65:23; Korba, et al., 2008, Antiviral Res. 77:56) using the stably-expressing HCV replicon cell line, AVA5 [sub-genomic (CON1), genotype 1b](Blight, et al., 2000, Science 290:1972) maintained as sub-confluent cultures on 96-well plates. Antiviral activity was determined by blot hybridization analysis of intracellular HCV RNA (normalized to the level of cellular B-actin RNA in each culture sample). Cytotoxicity was assessed by neutral red dye uptake in cultures maintained in parallel plates.
(§2) EC50, EC90, and CC50 values were calculated by linear regression analysis (MS EXCEL®, QUATTROPRO®) using data combined from all treated cultures Korba & Gerin, 1992, Antivir. Res. 19:55; Okuse, et al., 2005, Antivir. Res. 65:23). Standard deviations for EC50 and EC90 values were calculated from the standard errors generated by the regression analyses. […] The Selectivity index (S.I.) was calculated as CC50/EC50. Recombinant human interferon 2b (PBL laboratories, Inc.) was used as an assay control.
(§3) For each combination of agents, three concentration ratios, centered on the use of the compounds at equipotent antiviral concentrations, were used. A dilution series (six three-fold-concentration steps, beginning at the approximate EC90) was then generated with the concentration ratio of the two agents remaining the same in each dilution step. Toxicity analysis was performed as described above for the monotherapies. Analysis of drug interactions in the combination studies was determined by the use of the […] program (Biosoft, Inc., Cambridge, United Kingdom). This program evaluates synergy, additivity, or antagonism by use of several methodologies, including that of Chou and Talalay with a statistical analysis employing the Monte Carlo technique to provide confidence limits, fraction-affected-confidence interval (FA-CI) plots, isobolograms, and median-effect plots. (Belenkii, M. S. Schinazi, R. A method for the analysis of combination therapies with statistical analysis. Antiviral Res. 25, 11, 2005).
(In general: Replicon systems follow genome replication, usually without infectious particles.)

For data set [2], the system named is HCV replicon cell line, AVA5 [sub-genomic (CON1), genotype 1b]. Put plainly: microbe, parasite or virus in culture. It is filed as cell-based. The conditions noted are these: genotype 1B; for EC50: read-out: Control 2 (μM) EC50; for EC90: read-out: Control 2 (μM) EC90. The method, then:
as §1, §2, §3

Data set [3] has as its system replicon cell line containing H/FL-Neo (genotype 1a (H77), full length construct). Put plainly: Secondary anti-HCV assay: genotype 1a replicon, format of the primary assay. It is filed as cell-based. Conditions: genotype 1a replicon. The source says: Res. 19:55; Okuse, et al., 2005, Antivir. Res. 65:23).
Secondary anti-HCV assay—This assay assesses activity against different HCV genotypes using the format described for the primary assay. Activity against the genotype 1b HCV is included for comparison. Currently available is a replicon cell line containing H/FL-Neo (genotype 1a (H77), full length construct) (Blight, et al., 2003, J. Virol. 77:3181).

Data set [4] deals with TA1535. Put plainly: In vitro bacterial mutagenicity assay (pre-incubation), strain TA1535. The conditions noted are these: positive control; for Number of revertants x1, x2, x3: individual plates; for Fold response: vs vehicle control. The method, then:
(§4) Dispense 100 microliter aliquots of the appropriate bacterial cultures into sample tubes stored on ice. Dispense aliquots of the vehicle, positive controls or dose formulations into the appropriate sample tubes. 2 mL top Agar and HBT cap was added to the sample tube, inverted three times and poured into MG plate. The lid was replaced on the plate and left on a level surface to let the agar harden. The plates were incubated in an incubator for 48 to 72 h. The background lawn and count the number of revertants was checked for each plate.

Data set [5] relates to WP2 uvrA. Nature of the data set: In vitro bacterial mutagenicity assay (pre-incubation), strain WP2 uvrA. The conditions noted are these: positive control, S9 +, 15 μg/plate. The procedure: as §4
Data set [6] concerns TA98. Put plainly: In vitro bacterial mutagenicity assay (pre-incubation), strain TA98. The conditions noted are these: positive control, TA98, S9 0, 1 μg/plate. The procedure: as §4
Data set [7] relates to TA1537. Nature of the data set: In vitro bacterial mutagenicity assay (pre-incubation), strain TA1537. Conditions: positive control, TA1537, S9 0, 10 μg/plate. The procedure:
as §4

In data set [8] the test system is TA100. Nature of the data set: In vitro bacterial mutagenicity assay (pre-incubation), strain TA100. The conditions noted are these: positive control, TA100, S9 0, 0.5 μg/plate. The procedure:
as §4

A short description of data set [9]: Cytotoxicity by neutral red dye uptake in replicon cultures in parallel plates. The conditions noted are these: human, AVA5 HCV replicon cells (sub-genomic CON1, genotype 1b). The procedure: as §1, §2, §3

SMILES strings stand for the structures. Values joined by “and” are separate entries in the source; they are usually repeats but may differ in a detail not shown here. Equal entries are not always repeated. Where two headings read alike, the source gives them in different places.

With `C[C@@]1(O)[C@H](O)[C@@H](CO)O[C@H]1n1ccc(N)nc1=O` [2′CmeCyt], in data set [1], the CC50 is above 300 µM. In data set [2], the EC50 was found to be 1.4 µM and the EC90 amounted to 5.3 µM.

In the case of `COC1C(OP(=O)(OC[C@H]2O[C@@H](n3cnc4c(N)ncnc43)CC2O)SCOC(=O)C(C)(C)C)[C@@H](CO)O[C@H]1n1ccc(=O)[nH]c1=O` (some centres unmarked) [Compound 1], the EC50 in [3] (2-fold depression of intracellular HCV RNA, read-out: EC50 HCV Type 1A) worked out at 2900 nM. Moreover, the EC90 in data set [3] (10-fold depression of intracellular HCV RNA, read-out: EC90 HCV type 1A) was determined as 8500 nM.

For `Nc1ccc2cc3ccccc3cc2c1` [Compound 2AA, reference compound], the “Number of revertants mean” value in data set [4] (TA1535, S9 +, 5 μg/plate) amounted to 254; in data set [5], 373. The “Number of revertants x1, x2, x3” value in data set [4] (TA1535, S9 +, 5 μg/plate) was 263 and 242 and 257; in [5] (individual plates), 476 and 357 and 285. Moreover, the Fold response in data set [4] (TA1535, S9 +, 5 μg/plate) stood at 11; in [5] (vs vehicle control), 9.6.

Regarding `O=[N+]([O-])c1ccc2c(c1)Cc1ccccc1-2` [Compound 2NF, reference compound], in data set [6], the “Number of revertants mean” value came out at 139. Besides, in data set [6] (individual plates), the “Number of revertants x1, x2, x3” value was 151 and 114 and 153. In [6] (vs vehicle control), this molecule showed a Fold response of 4.5.

For `Nc1c2ccccc2nc2ccccc12` [Compound 9AC, reference compound], the “Number of revertants mean” value in [7] came to 741. Besides, the “Number of revertants x1, x2, x3” value in data set [7] (individual plates) was 728 and 910 and 585. This molecule also yielded a Fold response in [7] (vs vehicle control) of 57.

As for `[N-]=[N+]=[N-].[Na+]` [NaAz, reference compound], the “Number of revertants mean” value in [4] (TA1535, S9 0, 0.5 μg/plate) is listed as 321; in data set [8], 560. For the same molecule, the “Number of revertants x1, x2, x3” value in data set [4] (TA1535, S9 0, 0.5 μg/plate) is 340 and 312 (2×); in [8] (individual plates), 568 and 569 and 543. Also, the Fold response in data set [4] (TA1535, S9 0, 0.5 μg/plate) was 12; in data set [8] (vs vehicle control), 5.0.

`CCC[C@H](NC(=O)[C@@H]1[C@H]2CCC[C@H]2CN1C(=O)[C@@H](NC(=O)[C@@H](NC(=O)c1cnccn1)C1CCCCC1)C(C)(C)C)C(=O)C(=O)NC1CC1` [VX-950]: the CC50 at 3 day in [9] turned out to be 88000 nM. Besides, in [2] (Hepatitis C virus, Ava5), the half-maximal effective concentration (EC50) came out at 0.249 µM and the EC90 amounted to 0.892 µM.
